Several values for one entry are separate records, joined by “and”; a condition that tells them apart may be missing. Identical values can stand only once.
Tested on: WM3248 melanoma cells, 486 antibodies
Assay: Reverse phase protein arrays (RPPA);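 as to CA9.R.C RPPA level: ratio of treated to vehicle (0 µM) normalized linear protein signal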;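 as to CD171.M.V RPPA level: ratio of treated to vehicle (0 µM) normalized linear protein signal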;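 as to CREB pS133.R.C RPPA level: ratio of treated to vehicle (0 µM) normalized linear protein signal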;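 as to Cyclin.B1.R.V RPPA level: ratio of treated to vehicle (0 µM) normalized linear protein signal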
Format: cell-based, Human
Conditions: 20 uM
Source text: Pellets were snap frozen in liquid nitrogen and shipped to MD Anderson Cancer Center core RPPA facility for RPPA analysis (Table S5). Three biological replicates for each sample were generated.
Nomenclatures on the RPPA heatmaps: name_of_antibody.species_of_antibody.status_of_antibody. V - antibody validated; C - validation of antibody in progress; Q - antibody nonspecific; E – under evaluation; antibodies raised in M - mouse, G - goat, R - rabbit, or T - rat.

CN(C)c1cccc(Nc2cc(-c3ccccc3)nc(C3CCNCC3)n2)c1 [ARN22089, N1,N1-dimethyl-N3-(6-phenyl-2-(piperidin-4-yl)pyrimidin-4-yl)benzene-1,3-diamine]
RPPA SGK1.R.V Average (average of 3): 0.842
RPPA SGK3.R.V Average (average of 3): 1.023
RPPA SHP2.R.V Average (average of 3): 1.005
RPPA SHP.2_pY542.R.C Average (average of 3): 1.076
RPPA SIRPαR.V Average (average of 3): 0.981
RPPA SLC1A5.R.C Average (average of 3): 1.080
RPPA SOD1.M.V Average (average of 3): 0.967
RPPA SOD2.R.V Average (average of 3): 1.111
RPPA SOX7.R.V Average (average of 3): 1.078
RPPA STING.R.V Average (average of 3): 0.964
RPPA Shc_pY317.R.C Average (average of 3): 1.012
RPPA Slfn11.G.C Average (average of 3): 0.995
RPPA Smac.M.Q Average (average of 3): 0.977
RPPA Smad1.R.V Average (average of 3): 1.081
RPPA Smad3.R.V Average (average of 3): 1.101
RPPA Smad4.R.V Average (average of 3): 1.112
RPPA Snail.M.Q Average (average of 3): 0.754
RPPA Sox2.R.V Average (average of 3): 1.223
RPPA Sox17.R.V Average (average of 3): 0.982
RPPA Src.M.V Average (average of 3): 0.962
RPPA Src_pY416.R.V Average (average of 3): 1.034
RPPA Src_pY527.R.V Average (average of 3): 1.187
RPPA Stat3.R.C Average (average of 3): 0.979
RPPA Stat3_pY705.R.C Average (average of 3): 1.281
RPPA Stat5a.R.V Average (average of 3): 1.185
RPPA Stathmin.1.R.V Average (average of 3): 0.924
RPPA Syk.M.V Average (average of 3): 0.975
RPPA TAZ.R.V Average (average of 3): 0.719
RPPA TEAD.R.C Average (average of 3): 0.998
RPPA TFAM.R.V Average (average of 3): 0.978
RPPA TFRC.R.V Average (average of 3): 0.934
RPPA TRAP1.M.V Average (average of 3): 0.944
RPPA TRIM24.R.C Average (average of 3): 1.085
RPPA TRIM25.R.C Average (average of 3): 0.893
RPPA TRIP13.R.V Average (average of 3): 0.978
RPPA Transglutaminase.M.V Average (average of 3): 1.323
RPPA signal, antibody TSC1.R.C, Average (average of 3 replicates): 0.906
RPPA signal, antibody TTF1.R.V, Average (average of 3 replicates): 1.016
RPPA signal, antibody TUFM.R.V, Average (average of 3 replicates): 1.103
RPPA signal, antibody Tuberin_pT1462.R.V, Average (average of 3 replicates): 1.116
RPPA signal, antibody Twist.M.C, Average (average of 3 replicates): 0.954
RPPA signal, antibody Tyro3.R.V, Average (average of 3 replicates): 1.154
RPPA signal, antibody U.Histone.H2B.R.C, Average (average of 3 replicates): 2.471
RPPA signal, antibody UBAC1.R.V, Average (average of 3 replicates): 1.016
RPPA signal, antibody UGT1A.M.V, Average (average of 3 replicates): 1.000
RPPA signal, antibody ULK1_pS757.R.C, Average (average of 3 replicates): 0.908
RPPA signal, antibody UQCRC2.M.C, Average (average of 3 replicates): 0.887
RPPA signal, antibody VASP.R.V, Average (average of 3 replicates): 0.952
RPPA signal, antibody VAV1.R.C, Average (average of 3 replicates): 1.024
RPPA signal, antibody VEGFR.2.R.V, Average (average of 3 replicates): 0.928
RPPA signal, antibody VEGFR.2_pY1175.R.C, Average (average of 3 replicates): 1.063
RPPA signal, antibody VHL.EPPK1.M.C, Average (average of 3 replicates): 1.020
RPPA signal, antibody VHL.R.C, Average (average of 3 replicates): 0.956
RPPA signal, antibody Vinculin.M.V, Average (average of 3 replicates): 0.913
RPPA signal, antibody WIPI2.R.C, Average (average of 3 replicates): 1.142
RPPA signal, antibody WTAP.R.V, Average (average of 3 replicates): 1.197
RPPA signal, antibody Wee1.R.C, Average (average of 3 replicates): 1.011
RPPA signal, antibody XBP.1.G.C, Average (average of 3 replicates): 0.972
RPPA signal, antibody XIAP.R.C, Average (average of 3 replicates): 0.993
RPPA signal, antibody XPA.M.V, Average (average of 3 replicates): 0.982
RPPA signal, antibody XPF.R.C, Average (average of 3 replicates): 0.952
RPPA signal, antibody XRCC1.R.C, Average (average of 3 replicates): 1.024
RPPA signal, antibody YAP.R.C, Average (average of 3 replicates): 0.993
RPPA signal, antibody YB1_pS102.R.V, Average (average of 3 replicates): 1.015
RPPA signal, antibody YES1.R.V, Average (average of 3 replicates): 0.974
RPPA signal, antibody YTHDF2.R.V, Average (average of 3 replicates): 1.022
RPPA signal, antibody YTHDF3.R.C, Average (average of 3 replicates): 0.957
RPPA signal, antibody ZAP.70.R.V, Average (average of 3 replicates): 0.929
RPPA signal, antibody ZEB1.R.V, Average (average of 3 replicates): 1.026
RPPA signal, antibody TSC1.R.C (individual replicates): 0.941 and 0.818 and 0.960
RPPA signal, antibody TTF1.R.V (individual replicates): 1.015 and 0.923 and 1.110
RPPA signal, antibody TUFM.R.V (individual replicates): 1.758 and 0.731 and 0.819
RPPA signal, antibody Tuberin.R.V (individual replicates): 0.781 and 1.344 and 1.402
RPPA signal, antibody Tuberin_pT1462.R.V (individual replicates): 0.961 and 1.362 and 1.023
RPPA signal, antibody Twist.M.C (individual replicates): 0.937 and 0.987
RPPA signal, antibody Tyro3.R.V (individual replicates): 1.400 and 1.084 and 0.979
RPPA signal, antibody U.Histone.H2B.R.C (individual replicates): 5.570 and 0.775
RPPA signal, antibody UBAC1.R.V (individual replicates): 1.007 and 0.954
RPPA signal, antibody UBQLN4.M.C (individual replicates): 1.008 and 0.906 and 0.933
RPPA signal, antibody UGT1A.M.V (individual replicates): 0.958 and 1.050 and 0.991
RPPA signal, antibody ULK1_pS757.R.C (individual replicates): 0.848 and 1.011
RPPA signal, antibody UQCRC2.M.C (individual replicates): 0.993 and 0.916 and 0.753
RPPA signal, antibody UVRAG.R.C (individual replicates): 0.916 and 1.111 and 1.110
RPPA signal, antibody VASP.R.V (individual replicates): 1.010 and 0.872 and 0.975
RPPA signal, antibody VAV1.R.C (individual replicates): 0.958 and 1.058 and 1.057
RPPA signal, antibody VEGFR.2.R.V (individual replicates): 0.883 and 0.823 and 1.079
RPPA signal, antibody VEGFR.2_pY1175.R.C (individual replicates): 1.118 and 0.976
RPPA signal, antibody VHL.EPPK1.M.C (individual replicates): 1.005 and 1.203 and 0.853
RPPA signal, antibody VHL.R.C (individual replicates): 0.953 and 0.849
RPPA signal, antibody Vinculin.M.V (individual replicates): 0.888 and 0.854 and 0.998
RPPA signal, antibody WIPI1.R.C (individual replicates): 1.160 and 1.238 and 1.145
RPPA signal, antibody WIPI2.R.C (individual replicates): 1.015 and 1.158 and 1.252
RPPA signal, antibody WTAP.R.V (individual replicates): 1.419 and 1.174 and 0.998
RPPA signal, antibody Wee1.R.C (individual replicates): 0.776 and 1.131 and 1.126
RPPA signal, antibody Wee1_pS642.R.C (individual replicates): 0.845 and 1.173 and 1.116
RPPA signal, antibody XBP.1.G.C (individual replicates): 0.989 and 0.988
RPPA signal, antibody XIAP.R.C (individual replicates): 0.944 and 0.910 and 1.125
RPPA signal, antibody XPA.M.V (individual replicates): 0.967 and 1.026
RPPA signal, antibody XPF.R.C (individual replicates): 0.937 and 0.898 and 1.023
RPPA signal, antibody XRCC1.R.C (individual replicates): 1.008 and 1.026
RPPA signal, antibody YAP.R.C (individual replicates): 1.004 and 1.030 and 0.945
RPPA signal, antibody YAP_pS127.R.V (individual replicates): 1.152 and 0.978 and 0.976
RPPA signal, antibody YB1_pS102.R.V (individual replicates): 1.029 and 0.913 and 1.102
RPPA signal, antibody YES1.R.V (individual replicates): 1.048 and 0.896 and 0.978
RPPA signal, antibody YTHDF2.R.V (individual replicates): 1.166 and 0.983 and 0.917
RPPA signal, antibody YTHDF3.R.C (individual replicates): 0.960 and 0.870
RPPA signal, antibody ZAP.70.R.V (individual replicates): 0.979 and 0.883 and 0.925
RPPA signal, antibody ZEB1.R.V (individual replicates): 1.076 and 1.001 (2×)
C.Raf.R.C RPPA level (replicates): 0.876 and 1.165 and 1.143
C.Raf_pS338.R.V RPPA level (replicates): 0.991 and 1.112 and 1.160
CA9.R.C RPPA level (replicates): 0.919 and 0.861 and 0.996
CD2.M.C RPPA level (replicates): 0.941 and 0.909 and 0.958
CD4.R.V RPPA level (replicates): 0.942 and 0.993 and 1.083
CD5.M.C RPPA level (replicates): 0.997 and 0.956 and 0.945
CD20.R.C RPPA level (replicates): 1.250 and 0.955
CD26.R.V RPPA level (replicates): 1.005 and 0.958 and 1.161
CD29.M.V RPPA level (replicates): 0.953 and 0.914 and 0.985
CD31.M.V RPPA level (replicates): 0.978 and 0.997 and 0.990
CD38.R.C RPPA level (replicates): 0.979 and 1.221 and 1.194
CD44.R.C RPPA level (replicates): 1.115 and 0.966
CD45.M.V RPPA level (replicates): 0.921 and 0.967 and 0.985
CD49b.M.V RPPA level (replicates): 0.971 and 0.954
CD68.M.C RPPA level (replicates): 1.009 and 1.025 and 0.962
CD74.M.V RPPA level (replicates): 1.011 and 1.026 and 0.956
CD134.R.V RPPA level (replicates): 0.989 and 0.997 and 0.996
CD171.M.V RPPA level (replicates): 0.680 and 0.817 and 0.790
CDK1_pT14.R.C RPPA level (replicates): 1.334 and 0.655
CDK9.R.V RPPA level (replicates): 1.161 and 0.839 and 0.893
CDKN2A.R.C RPPA level (replicates): 0.966 and 1.130 and 0.976
CDT1.R.V RPPA level (replicates): 0.905 and 0.934
CENP.A.R.V RPPA level (replicates): 2.651 and 0.953
CHD1L.R.V RPPA level (replicates): 0.935 and 0.987 and 0.941
CIITA.R.C RPPA level (replicates): 1.013 and 1.020 and 0.972
COG3.R.V RPPA level (replicates): 0.941 and 1.097 and 1.256
CRABP1.R.C RPPA level (replicates): 1.019 and 1.064 and 0.991
CRABP2.R.V RPPA level (replicates): 0.965 and 1.085 and 0.882
CREB_pS133.R.C RPPA level (replicates): 0.965 and 1.585 and 1.260
CSK.R.C RPPA level (replicates): 0.871 and 1.022
Calnexin.R.V RPPA level (replicates): 0.849 and 0.983
Caspase.3.cleaved.R.C RPPA level (replicates): 0.952 and 1.128 and 1.028
Caspase.7.cleaved..R.C RPPA level (replicates): 1.007 and 0.873 and 1.064
Caspase.8.M.Q RPPA level (replicates): 1.015 and 0.943 and 0.830
Caspase.8.cleaved.R.C RPPA level (replicates): 0.945
Caveolin.1.R.V RPPA level (replicates): 0.593 and 0.774 and 1.160
Cdc6.R.V RPPA level (replicates): 1.141 and 0.773 and 0.673
Cdc42.R.C RPPA level (replicates): 0.928 and 1.027 and 1.096
Chk1.M.C RPPA level (replicates): 0.847 and 0.982
Chk1_pS296.R.V RPPA level (replicates): 0.942 and 1.163 and 1.155
Chk1_pS345.R.C RPPA level (replicates): 1.030 and 1.165 and 1.125
Chk2.M.V RPPA level (replicates): 0.868 and 0.876 and 0.992
Chk2_pT68.R.C RPPA level (replicates): 0.919 and 1.631 and 1.172
Claudin.7.R.V RPPA level (replicates): 0.970 and 1.594 and 0.965
Collagen.VI.R.V RPPA level (replicates): 1.150 and 0.775 and 0.928
Complex.II.Subunit.M.V RPPA level (replicates): 0.977 and 0.871 and 0.988
Connexin.43.R.C RPPA level (replicates): 0.961 and 1.203 and 1.101
Coup.TFII.R.C RPPA level (replicates): 0.854 and 0.942 and 1.027
Cox2.R.C RPPA level (replicates): 1.254 and 0.972 and 1.574
Cox.IV.R.V RPPA level (replicates): 1.125 and 0.898 and 0.967
Creb.R.C RPPA level (replicates): 1.005 and 1.024 and 1.173
CtIP.R.V RPPA level (replicates): 0.804 and 0.988 and 1.058
Cyclin.B1.R.V RPPA level (replicates): 1.623 and 0.503 and 1.275
Cyclin.D1.R.C RPPA level (replicates): 1.131 and 1.034 and 0.955

From article PMC9127750, “Structure-based design of CDC42 effector interaction inhibitors for the treatment of cancer” (Cell reports, 2022)
